# Experimental data from US6545021B1, “Use of substituted-1,5-dideoxy-1,5-imino-D-glucitol compounds for treating hepatitis virus infections” (G.D. Searle & Co., priority 1999, dated 2003).
# Experiments:
# HBV = experiment: Cell culture experiments with N-nonyl-DNJ: total HBV DNA and immune precipitated DNA; type: cell-based, hepatitis B virus
# Excerpt: (§1) There are two measures of drug efficacy: reduction in total HBV DNA (measured by quantitative PCR), and reduction in HBV DNA from capsids with intact surface glycoproteins, which is the active form of the virus (measured by an ELISA-like immune precipitation assay followed by quantitative PCR).
# [1] = tested on: woodchuck hepatitis virus (WHV); experiment: Woodchuck model, N-nonyl-DNJ monotherapy, BID oral dosing; type: in vivo
# Experimental: Therefore, five groups of four animals each (all groups had both sexes, all but the control had two of each sex) were assigned to 0, 12.5, 25, 50, and 100 mg/kg/day with BID oral dosing. These were lab-reared wild animals. All animals were infected with woodchuck hepatitis virus (WHV) as neonates, and had been tested positive on serological tests for WHV surface antigen. Blood samples were drawn one week prior to dosing (−1 week), immediately before dosing (0 weeks), weekly during dosing (1, 2, 3, and 4 weeks), and after the end of dosing (5, 6, 8, and 10 weeks).
# as §1
# Before models are fitted to the data, a log transform was applied because: 1) the variation in IPDNA increases with increasing IPDNA values; the log transformation gives values with a nearly constant variation, and 2) it is expected that drug effects will appear as a constant multiplier of the IPDNA level. Because there are zero values of IPDNA, a small value (about ½ of the smallest non-zero value) was added to all values before the log transform.
# Two approaches were used to model the changes in slope to week with dose of N-nonyl-DNJ: a linear modeling approach and a nonlinear model. Both approaches assume that the (linear) rate of change of the Log(IPDNA) measure over the dosing period is the “right” measure to reflect the effect of the drug on the virus. Both approaches are fit in stages, and the first stage is common to both approaches. First, a simple straight line regression model is fit using weeks 0-4 to predict log(IPDNA_+—10) separately for each animal by run combination. In the second stage, the response variable is the slope fitted in the first stage.
# For the linear approach, a model is fit with slope to week as the response where run is considered a block, dose has a significant effect (almost all of this effect is due to a slope to dose), and the relevant error for testing the effect of dose is the variation among animals treated alike (after the adjustment for the runs as blocks). This is similar to using the calibration data within each run to first adjust each run's data to a common virus DNA concentration; the difference is that here the data from the woodchucks are used for the run adjustment rather than only the calibration data.
# For the nonlinear approach, a four parameter logistic model is fit with the slope to week as the response and the dose as the predictor. Again, run is considered a block, but because no run has all weeks, it is not possible to fully reflect the blocking in the nonlinear approach. […] The average maximum slope observed was 2.71 additional Log(IPDNA g/mL)/week, or an increase of about 150%/week, the average minimum slope observed with N-nonyl-DNJ is 0.31 fewer Log(IPDNA g/mL)/week), or about a decrease of about 25%/week. The slopes, the fitted model, the parameter estimates from the model, and the approximate standard errors for these parameters are all shown in FIG. 3. […] Whether in woodchucks or humans, the effective dose of both the N-alkyl-DNJ and nucleoside or nucleotide antiviral agent administerd in combination therewith can be administerd in two equal daily subdoses (i.e., B.I.D.).
smiles,measurement,setting,value
"CCCCCCCCCN1C[C@H](O)[C@@H](O)[C@H](O)[C@H]1CO [N-nonyl-DNJ, N-(n-nonyl)-1,5-dideoxy-1,5-imino-D-glucitol]",effect on the immune precipitated DNA (IPDNA),HBV,marked effect
same,effect on total HBV DNA,HBV,little or no effect
same,effect on total HBV DNA measurements,"[1]; all dose levels, quantitative PCR",no effect
same,levels of IPDNA over the dosing period,"[1]; high dose animals, weeks 0-4",decreasing levels of IPDNA
same,levels of IPDNA over the dosing period,"[1]; low dose animals, weeks 0-4",increasing levels of IPDNA
same,average minimum slope observed,[1]; weeks 0-4,0.31 fewer Log(IPDNA g/mL)/week
same,decrease of IPDNA per week at average minimum slope,[1]; weeks 0-4,about 25 %/week
same,approximate effective monotherapy dose,[1]; woodchucks,about 16 mg/kg/day
